The source made the active and inactive calls. The rule behind the calls is not given here.

We go through one compound from ChEMBL document CHEMBL5050836, “Inhibitors of eya3-protein tyrosine phosphatase in dna damage repair signaling of pulmonary arterial hypertension” (2021).

Data set [1] concerns Lung. Nature of the data set: Protection against pulmonary hypertension in Sugen-Hypoxia (SuHx) rat model assessed as reduction in gamma-H2AX foci in lungs. In kind it is functional, tissue-based.
The subject of the next data set is Liver. Nature of the data set: Hepatotoxicity in rats at 0.15 to 1.5 mg administered via instillation in to trachea. Type of data set: toxicity. The note with it: rat, in vivo, inhaled_or_intranasal; dose 0.15-1.5 mg.
Data set [2] concerns Lung. Description: Protection against pulmonary hypertension in Sugen-Hypoxia (SuHx) rat model assessed as reduction in 53BP1 foci in lungs. In kind it is functional, tissue-based.

Take `CCc1oc2ccccc2c1C(=O)c1ccc(O)cc1` [BENZARONE]: the outcome with Lung [1] and in the data set on Lung [2] was Active. Besides, in the data set on Liver, the Activity entry is reported as “Non-Toxic”.
